# Laboratory results reported in US20220088007A1 (priority 2010, published 2022).
# Read-outs that look alike come from different tables or passages of the source.
# How the values were obtained:
# [1] = Example 2 (NB-236): steady-state food-effect extension study of NB 8/90 tablets, plasma pharmacokinetics
# Procedure: A phase I, open label, steady-state study was performed to assess the plasma pharmacokinetics of NB tablets under fed and fasted conditions. An extension of the study allowed for the evaluation of the effect of food on the pharmacokinetics of NB tablets.
# Days 1-31 of the study were devoted to the primary investigation of metoprolol pharmacokinetics in the context of steady-state dosing with NB tablets. Subjects (n=18) received a metoprolol 50 mg IR tablet on Days 1 and 31. NB was dose escalated every week from a single NB 8/90 tablet per day on Day 3 to a maximum dose of NB 32/360 (two NB 8/90 tablets BID) starting on Day 24. In the clinic setting (Days 1-3 and 27-31), standardized meals were provided before dosing and pharmacokinetic sampling. These meals were moderate in fat and caloric content. Subjects were instructed to take study medication with food during the outpatient (Days 4-26) phase of the study.
# Subjects enrolling in the optional extension continued BID dosing administration (with moderate meals) through Day 32. […] The evening dose on Day 33, study medication was given with food (“moderate” meal). For Day 34, subjects received their morning dose under the opposite condition from what they received on the morning of Day 33. […] For purposes of studying the effects of food, the comparisons were between Day 30 pharmacokinetics (“moderate” meal) and the fasted and high-fat meal conditions administered on Day 33 and Day 34.
# [2] = Example 1 (NB-233): single-dose crossover food-effect study of NB 8/90 trilayer tablets, plasma pharmacokinetics; conditions: for increase in Cmax: high-fat conditions compared to fasted conditions; for Cmax between high-fat and fasted conditions (in words): 90% CIs within 80% to 125% range
# [3] = Example 3 (NB-239 vs NB-237): single dose NB 8/90 tablets, moderate-fat, moderate-calorie meal vs fasted, cross-study comparison; conditions: for Cmax: single dose two NB 8/90 tablets
# [4] = in vivo
# [5] = human, in vivo
# clinical [6] = conditions: both, human
# clinical [7] = conditions: human
# [8] = fed moderate-fat meal, mean ± SD
# [9] = fed moderate-calorie, moderate-fat meal, mean ± SD
# [10] = fed (high-fat meal), arithmetic mean ± SD
smiles,measurement,setting,value
Oc1ccc2c3c1O[C@H]1[C@H](O)CC[C@@]4(O)[C@@H](C2)N(CC2CC2)CC[C@]314 [6β-naltrexol],effect of food (moderate-fat or high-fat meal) on exposure relative to the fasted state (in words),"[1]; steady state, two NB 8/90 tablets",neither meal type appeared to affect
same,increase in Cmax,[2],52%
"CC(NC(C)(C)C)C(=O)c1cccc(Cl)c1 (stereo not shown) [Bupropion, bupropion]",Cmin,"[1]; both, human, in vivo",41.6 ± 10.4 ng/mL
same,AUC0-t,"[1]; both, human, in vivo, po",965 ± 249 ng·h/mL
same,Tmax,"[1]; both, human, in vivo, po, Tmax",1.99 h
same,Cmax,"[1]; steady state, morning dose two NB 8/90 tablets fasted, Day 33 or 34, mean ± SD",131 ± 38.2 ng/mL
same,Cmax,"[1]; steady state, morning dose two NB 8/90 tablets fed high-fat meal, Day 33 or 34, mean ± SD",167 ± 43.4 ng/mL
same,Cmax,"[1]; steady state, two NB 8/90 tablets BID, fed moderate meal, Day 30, mean ± SD",156 ± 52.5 ng/mL
same,AUC0-t,"[3]; fasted, mean ± SD",1496.01 ± 323.04 ng·h/mL
same,AUC0-∞,"[3]; fasted, mean ± SD",1574.93 ± 346.49 ng·h/mL
same,t1/2,"[3]; fasted, mean ± SD",19.83 ± 3.24 h
same,AUC0-∞,[3]; [8],1384.85 ± 330.19 ng·h/mL
same,Cmax,"[3]; fasted, mean ± SD",156 ± 36.9 ng/mL
same,Cmax,[3]; [9],154 ± 55.4 ng/mL
same,AUC0-t,"[2]; fasted, arithmetic mean ± SD",1550.91 ± 549.08 ng·h/mL
same,AUC0-t Fed to Fasted % MR,"[4]; both, human",139.50%
same,t1/2 apparent terminal elimination half-life,"[4]; both, human",20.44 h
same,"apparent terminal elimination t1/2, fed vs fasted conditions (in words)",[4],similar
same,"median Tmax, fed vs fasted conditions (in words)",[4],one hour shorter
same,"AUC0-t % MR, fed (moderate-fat) to fasted",[5],91.55%
same,AUC(0-inf),clinical [6]; in vivo,1620 ± 574 ng·h/mL
same,Cmax,clinical [6]; in vivo,161 ± 52.1 ng/mL
same,Tmax,clinical [7]; in vivo,2.07 h
"O=C1CC[C@@]2(O)[C@H]3Cc4ccc(O)c5c4[C@@]2(CCN3CC2CC2)[C@H]1O5 [Naltrexone, naltrexone]",AUC0-t,"[1]; both, human, plasma, po, fasted, Day 33 or 34, mean ± SD",7.07 ± 2.88 ng·h/mL
same,AUC0-t,"[1]; both, human, plasma, po, fed high-fat meal, Day 33 or 34, mean ± SD",11.8 ± 4.68 ng·h/mL
same,AUC0-t,"[1]; both, human, plasma, po, fed moderate meal, Day 30, mean ± SD",11.7 ± 4.45 ng·h/mL
same,Cmax,"[1]; both, human, plasma, po, Cmax, steady state, morning dose two NB 8/90 tablets fasted, Day 33 or 34, mean ± SD",1.47 ± 0.71 ng/mL
same,Cmax,"[1]; both, human, plasma, po, Cmax, steady state, morning dose two NB 8/90 tablets fed high-fat meal, Day 33 or 34, mean ± SD",2.84 ± 1.53 ng/mL
same,Cmax,"[1]; both, human, plasma, po, Cmax, steady state, two NB 8/90 tablets BID, fed moderate meal, Day 30, mean ± SD",2.6 ± 1.02 ng/mL
same,Tmax,"[1]; both, human, plasma, po, Tmax, fasted, Day 33 or 34, median (minimum, maximum)",0.75 h
same,Tmax,"[1]; both, human, plasma, po, Tmax, fed moderate meal, Day 30, median (minimum, maximum)",2 h
same,Cmin,"[1]; fasted, Day 33 or 34, mean ± SD",0.172 ± 0.0758 ng/mL
same,Cmin,"[1]; fed high-fat meal, Day 33 or 34, mean ± SD",0.159 ± 0.0895 ng/mL
same,Tmax,"[1]; fed high-fat meal, Day 33 or 34, median (minimum, maximum)","3.00 (1.25, 6.00) hr"
same,Cmin,"[1]; fed moderate meal, Day 30, mean ± SD",0.195 ± 0.105 ng/mL
same,lower Cmin versus the fasted condition,"[1]; high-fat, high-calorie meal",12%
same,higher Cmin versus the fasted condition,"[1]; moderate-fat, moderate-calorie meal",10%
same,"Cmin % MR, high-fat fed to fasted",[1]; steady state,88.39%
same,"Cmin % MR, high-fat to moderate-fat",[1]; steady state,80.15%
same,"Cmin % MR, moderate-fat fed to fasted",[1]; steady state,110.04%
same,"effect of changing meal from moderate-fat, moderate-calorie to high-fat, high-calorie (in words)","[1]; steady state, morning dose",no effect
same,AUC0-t,[3]; [8],13.41 ± 6.93 ng·h/mL
same,AUC0-∞,[3]; [8],13.63 ± 7.15 ng·h/mL
same,Tmax,"[3]; fed moderate-fat meal, median (minimum, maximum)","2.00 (0.75, 6.00) hr"
same,Cmax,[3]; [9],2.65 ± 1.18 ng/mL
same,AUC0-t,"[2]; fasted, arithmetic mean ± SD",7.98 ± 4.04 ng·h/mL
same,AUC0-t,[2]; [10],16.42 ± 8.70 ng·h/mL
same,AUC0-∞,[2]; [10],16.65 ± 8.70 ng·h/mL
same,Tmax,"[2]; fed (high-fat meal), median (minimum, maximum)","2.00 (0.75, 6.00) hr"
same,"median Tmax, fed vs fasted conditions (in words)",[2]; fed vs fasted,similar
same,AUC0-t Fed to Fasted % MR,[2]; high-fat fed vs fasted,211.50%
same,Cmax,"[2]; plasma, single dose two NB 8/90 tablets, fed (high-fat meal), arithmetic mean ± SD",4.00 ± 2.52 ng/mL
same,AUC(0-inf),"clinical [6]; plasma, oral",8.39 ± 4.26 ng·h/mL
same,Tmax,"clinical [6]; plasma, oral",2 h
same,AUC0-t,"clinical [7]; plasma, oral",8.3 ± 6.41 ng·h/mL
same,AUC(0-inf),"clinical [7]; plasma, oral",8.55 ± 6.46 ng·h/mL
same,Cmax,"clinical [7]; plasma, oral",1.34 ± 0.763 ng/mL
same,Tmax,"clinical [7]; plasma, oral",1.27 h
CC(NC(C)(C)C)C(O)c1cccc(Cl)c1 (stereo not shown) [erythrohydrobupropion],Cmax between high-fat and fasted conditions (in words),[2],comparable
C[C@H]1NC(C)(C)CO[C@]1(O)c1cccc(Cl)c1 [hydroxybupropion],Cmax between high-fat and fasted conditions (in words),[2],comparable
C[C@H](NC(C)(C)C)[C@@H](O)c1cccc(Cl)c1 [threohydrobupropion],increase in Cmax,[2],26%
